{
  "source": "patent US11278533B2",
  "about": "“Animal pest control method” (E.I. DU PONT DE NEMOURS AND COMPANY, priority 2007, dated 2022)",
  "data": [
    {"tested_on": "cat flea (Ctenocephalides felis)", "test": "Test D: cat flea membrane feeding on treated bovine blood", "type": "in vivo", "conditions": "72 h", "description": "For evaluating control of the cat flea (Ctenocephalides felis), a test compound was solubilized in propylene glycol/glycerol formal (60:40) and then diluted in bovine blood to a final test rate of 30 ppm. The treated blood was placed in a tube, and the bottom of the tube was covered with a membrane. Approximately 10 adult cat fleas were allowed to feed through the membrane on the treated blood. The adult fleas were then evaluated for mortality 72 hours later.", "units": {"mortality at 30 ppm": "%"}, "values": [
      {"smiles": "Cc1cc(C2=NOC(c3cc(Cl)cc(Cl)c3)(C(F)(F)F)C2)ccc1C(=O)NCc1ccccn1", "note": "(centres unmarked) [Compound 1, 4-[5-(3,5-dichlorophenyl)-4,5-dihydro-5-(trifluoromethyl)-3-isoxazolyl]-2-methyl-N-(2-pyridinylmethyl)benzamide]", "mortality at 30 ppm": "≥ 50"},
      {"smiles": "CSCCNC(=O)c1ccc(C2=NOC(c3cc(Cl)cc(Cl)c3)(C(F)(F)F)C2)cc1C", "note": "(centres unmarked) [Compound 2, 4-[5-(3,5-dichlorophenyl)-4,5-dihydro-5-(trifluoromethyl)-3-isoxazolyl]-2-methyl-N-[2-(methylthio)ethyl]benzamide]", "mortality at 30 ppm": "≥ 50"},
      {"smiles": "Cc1cc(C2=NOC(c3cc(Cl)cc(Cl)c3)(C(F)(F)F)C2)ccc1C(=O)NCC(=O)NCC(F)(F)F", "note": "(centres unmarked) [Compound 3, 4-[5-(3,5-dichlorophenyl)-4,5-dihydro-5-(trifluoromethyl)-3-isoxazolyl]-2-methyl-N-[2-oxo-2-[(2,2,2-trifluoroethyl)amino]ethyl]benzamide]", "mortality at 30 ppm": "≥ 50"},
      {"smiles": "Cc1cc(C2=NOC(c3cc(Cl)cc(Cl)c3)(C(F)(F)F)C2)ccc1C(=O)NCC[S+](C)[O-]", "note": "(centres unmarked) [Compound 5, 4-[5-(3,5-dichlorophenyl)-4,5-dihydro-5-(trifluoromethyl)-3-isoxazolyl]-2-methyl-N-[2-(methylsulfinyl)ethyl]benzamide]", "mortality at 30 ppm": "≥ 50"},
      {"smiles": "Cc1cc(C2=NOC(c3cc(Cl)cc(Cl)c3)(C(F)(F)F)C2)ccc1C(=O)NCCS(C)(=O)=O", "note": "(centres unmarked) [Compound 6, 4-[5-(3,5-dichlorophenyl)-4,5-dihydro-5-(trifluoromethyl)-3-isoxazolyl]-2-methyl-N-[2-(methylsulfonyl)ethyl]benzamide]", "mortality at 30 ppm": "≥ 50"}
    ]}
  ]
}
